From article PMC3927474, “Whole body synthesis rates of DHA from α-linolenic acid are greater than brain DHA accretion and uptake rates in adult rats” (Journal of Lipid Research, 2014)
Several values for one entry are separate records, joined by “and”; a condition that tells them apart may be missing. Identical values can stand only once. Marks after values point to notes of the source that are not given here.

Columns and labels:
Format in all cases: in vivo, rat
[1] = Balance study: n-3 and n-6 PUFA balance (intake, excretion, accretion, metabolic consumption); conditions: for Fecal excretion: mean % excretion applied to intake; for Fecal excretion / Metabolic consumption of dietary PUFAs: DHA group: refers to DHA; for Dietary PUFA excreted in the feces: 24 h feces at 8 weeks postweaning, percentage of intake; for Metabolic consumption of dietary PUFAs: n-3 PUFA, Eq. 1, 15 weeks
Experimental: All procedures were performed in accordance with the policies set out by the Canadian Council on Animal Care and were approved by the Animal Ethics Committee at the University of Toronto. Three Long Evans dams each with 18-day-old male Long Evans pups were ordered from Charles River Laboratories (St. Constant, QC, Canada). Pups were nonlittermates and each dam was housed with pups. Upon arrival, dams were allocated to one of the three diets (described below). When the pups were 21 days old, two pups from each dam were euthanized by high-energy head-focused microwave fixation (4.5 kW for 0.9 s). Brains were removed immediately and stored at -80°C until lipid analysis. Bodies were also stored at -80°C immediately after euthanization until analysis. The brains and bodies of these pups were used to determine the PUFA content of the rats at weaning (i.e., baseline PUFA content). […] For the balance study, the rats were weighed, food intake was determined, and uneaten food was replaced with fresh food on a weekly basis. Rats were euthanized by CO2 asphyxiation. Brains were removed and dissected sagittally. Carcasses and one half brain per rat were stored immediately at -80°C (to be later analyzed for lipid content). […] For the steady-state infusion study and the brain DHA uptake study, a jugular vein catheter was surgically implanted into the rats. […] Carcasses were thawed overnight in a refrigerator at 3°C, cut into pieces, and passed through a #12 hand grinder. After the whole body had passed through the grinder once, the homogenate was mixed together by hand and passed at least one more time through the grinder until the mixture was sufficiently homogeneous. Due to the small size of the pups all of the 21-day-old pup bodies were passed through the grinder together. […] New chloroform was added to the remaining aqueous phase, the mixture was once again centrifuged, and the chloroform layer was extracted and added to the previously extracted chloroform layer. […] One hemisphere was thawed briefly and dissected over ice to separate the brainstem, cerebellum, cortex, hippocampus, striatum, and the rest of the brain. […] The homogenizer was then washed with methanol, which was then transferred to the test tube containing the homogenized brain and KCl. […] The chloroform layer was extracted and new chloroform was added to the aqueous phase. […] At 8 weeks postweaning all the feces produced by a rat in 24 h were collected. […] Mean PUFA excretion (percentage of intake) was determined and applied to all animals to determine PUFA excretion. […] Nu-Check Prep, Elysian, MN) was added to the TLE. […] Samples were injected in […] mode. The injector and detector ports were set at 250°C. […] The carrier gas was helium, set to a constant flow rate of 0.7 ml/min. Peaks were identified by retention times of authentic FAME standards (Nu-Chek Prep). […] The concentrations were expressed on a per gram basis then multiplied by total weight of the tissue to determine the total amount of each fatty acid in the tissue.

[2] = Brain DHA uptake study: ^14C-DHA infusion; conditions: for Brain DHA uptake rate: 5 min ^14C-DHA infusion, 15 wk diet
Experimental: At 15 weeks postweaning, a surgery was performed to implant a catheter into the jugular vein (described above). […] After 5 min of ^14C-DHA infusion rats were euthanized by high-energy head-focused microwave fixation (13.5 kW for 1.6 s). The brains were then removed, dissected sagittally and stored at −80°C until analysis.
A known portion of the plasma TLE was then added to a scintillation vial with 5 ml of scintillation cocktail (GE Healthcare Life Sciences, Baie d'Urfe, QC, Canada). Radioactivity was measured using liquid scintillation counting to determine the plasma AUC for radioactivity. For plasma samples drawn at time 0 s of the infusion, the unesterified lipids were isolated by TLC and quantified using GC-FID (described above).
Radioactivity was quantified by a Packard TRI-CARB2900TR liquid scintillation analyzer (Packard, Meriden, CT) with a detector efficiency of 48.8%. Radioactivity was expressed in disintegrations per minute; then converted to nCi.
Brain hemispheres were homogenized and lipids extracted as described above. A known portion of the TLE was then added to a scintillation tube with 5 ml of scintillation cocktail. Radioactivity was quantified using liquid scintillation counting.
To determine the brain DHA uptake rate, the incorporation coefficient for DHA from the unesterified plasma pool into the brain total lipid pool is ([26]):(Eq. 5) k^*=cbr*(T)/∫0Tcpl*dt where cbr*(T) is the total brain radioactivity at the end of the infusion and ∫0Tcpl*dt is the plasma radioactivity AUC.
Multiplying the incorporation coefficient by the concentration of plasma unesterified DHA (cpl) allows for the determination of the brain DHA uptake rate:(Eq. 6) Jin=k^*cpl

[3] = Body weight and food intake, balance study; conditions: 15 wk diet
Experimental: The remaining pups were weaned, singly housed, continued on the diet of their respective dam for 15 weeks, and were allocated to either the balance study (n = 11), the steady-state infusion study (n = 4), or the brain DHA uptake study (n = 3). For the balance study, the rats were weighed, food intake was determined, and uneaten food was replaced with fresh food on a weekly basis. Rats were euthanized by CO2 asphyxiation. Brains were removed and dissected sagittally. Carcasses and one half brain per rat were stored immediately at −80°C (to be later analyzed for lipid content). The other half brain was flash-frozen with 2-methylbutane on dry ice, and then stored at −80°C until analyzed for mRNA expression. The PUFA content in the brains and bodies of these rats after the 15 week feeding period was compared with the baseline PUFA content (described above) to determine PUFA accretion (equation 1, described below). For the steady-state infusion study and the brain DHA uptake study, a jugular vein catheter was surgically implanted into the rats. After allowing a 24 h recovery, rats were infused with ^2H14-ALA or ^14C-DHA, respectively (described below). The ^2H14-ALA infusion was used to determine DHA synthesis rates following a previously published method ([24]) and the ^14C-DHA infusion was utilized to measure the brain DHA uptake rate by following previously published methods ([26]).

[4] = average over 15 weeks, listed as DHA diet

| Structure (SMILES) | Metabolic consumption of dietary PUFA (n-6) ([1]; 15 weeks) [µmol] | Fecal excretion ([1]; 15 weeks) [µmol] | Body Content of n-6 PUFA, Day 105 ([1]; 15 wk diet) [µmol] | Brain Content of n-6 PUFA, Day 105 ([1]; 15 wk diet) [µmol] | Total Accretion: 18:3n-6 ([1]; 15 wk diet) [µmol] | Total Accretion: 20:2n-6 ([1]; 15 wk diet) [µmol] | Total Accretion: 22:4n-6 ([1]; 15 wk diet) [µmol] | Total Accretion: ARA ([1]; 15 wk diet) [µmol] | Total Accretion: LNA ([1]; 15 wk diet) [µmol] | Total Accretion: Total n-6 PUFA ([1]; 15 wk diet) [µmol] | Dietary PUFA excreted in the feces [1] [%] | Brain DHA accretion rate (balance study) ([1]; average over 15 weeks) [µmol/day] | Brain Content of n-6 PUFA, Day 0 ([1]; baseline) [µmol] | Total accretion: DHA ([1]; body + brain, 15 wk diet) | Metabolic consumption of dietary PUFAs [1] | Brain DHA uptake rate [2] [nmol/day] | Mean body weight at 15 weeks [3] [g] | also measured |
| --- | --- | --- | --- | --- | --- | --- | --- | --- | --- | --- | --- | --- | --- | --- | --- | --- | --- | --- |
| CC/C=C\C/C=C\C/C=C\CCCCCCCC(=O)O [ALA, α-linolenic acid] | 147161 | 57 ± 2 | 29170 | 20 | 52 | 169 | 138 | 1806 | 25157 | 27489 | 0.27 ± 0.002 | 0.032 ± 0.005 | 14 | 440 ± 39^b μmol | 19037 ± 617^b μmol | 467.6 ± 93.7 | 673 ± 25 | Fecal Excretion of LNA ([1]; 15 weeks): 877 µmol; Body content of n-3 PUFAs, Day 105 ([1]; 15 wk diet, n = 11): 2352 ± 166^b μmol; Brain content of n-3 PUFAs, Day 105 ([1]; 15 wk diet, n = 11): 14 ± 2^b μmol; Total DHA synthesis-accretion rate (balance study) ([1]; average over 15 weeks, body + brain, listed as ALA diet): 4.2 µmol/day and 4.2 ± 0.4 µmol/day; DHA synthesis and accretion in ALA-fed rats relative to brain DHA accretion of DHA-fed rats ([1]; balance study): 100 fold; Dietary ALA metabolically consumed ([1]; balance study): approximately 90%; Body Content of n-6 PUFA, Day 0 ([1]; baseline): 1491 µmol; Body content of n-3 PUFAs, Day 0 ([1]; baseline, 21-day-old pups, n = 2): 139 ± 3 µmol; Brain content of n-3 PUFAs, Day 0 ([1]; baseline, n = 2): 10 ± 0.6 µmol; Total accretion: 20:3n-3 ([1]; body + brain, 15 wk diet): 110 ± 11^ab μmol; Total accretion: ALA ([1]; body + brain, 15 wk diet): 1500 ± 100^b μmol; Total accretion: DPAn-3 ([1]; body + brain, 15 wk diet): 90 ± 7^b μmol; Total accretion: EPA ([1]; body + brain, 15 wk diet): 70 ± 10^b μmol; Total accretion: Total n-3 PUFA ([1]; body + brain, 15 wk diet): 2209 ± 107^b μmol; Brain DHA uptake rate ([2]; listed as ALA diet): 468 nmol/day |
| CC/C=C\C/C=C\C/C=C\C/C=C\C/C=C\C/C=C\CCC(=O)O [DHA, Docosahexaenoic acid] | 157517 | 10 ± 0.4 | 32391 | 17 | 41 | 167 | 97 | 1539 | 28810 | 30720 | 0.07 ± 0.02 | 0.042 ± 0.007 | 14 | 1119 ± 62^c μmol | 15783 ± 548^b,** μmol | 858.6 ± 74.8 | 724 ± 18 | Brain DHA accretion rate (balance study) [1, 4]: 0.042 µmol/day; DHA uptake and accretion rate into the brain (balance study) [1, 4]: 42 nmol/day and 42 ± 7 nmol/day; Uptake rate of DHA into the brain, DHA-fed relative to ALA-fed rats ([2]; rat, in vivo): ~2 fold |
